Results published in PubChem BioAssay (NCI).
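These data come from cells grown in 96-well plates and exposed to compound for 48 hours at five concentrations. GI50 = concentration required for 50% inhibition of growth. TGI is the concentration that stops growth completely.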

Experiments:
Assay in all cases: NCI tumour cell line growth inhibition, 48 h
[1] = system: 786-0 renal
[2] = system: A498 renal
[3] = system: A549 NSCLC
[4] = system: ACHN renal
[5] = system: BT-549 breast
[6] = system: CAKI-1 renal
[7] = system: CCRF-CEM leukemia
[8] = system: COLO 205 colon
[9] = system: DU-145 prostate
[10] = system: EKVX NSCLC
[11] = system: HCC-2998 colon
[12] = system: HCT-116 colon
[13] = system: HCT-15 colon
[14] = system: HOP-62 NSCLC
[15] = system: HOP-92 NSCLC
[16] = system: HS 578T breast
[17] = system: HT29 colon
[18] = system: K-562 leukemia
[19] = system: KM12 colon
[20] = system: LOX IMVI melanoma
[21] = system: M14 melanoma
[22] = system: MALME-3M melanoma
[23] = system: MCF7 breast
[24] = system: MDA-MB-231 breast
[25] = system: MDA-MB-435
[26] = system: MDA-N
[27] = system: MOLT-4 leukemia
[28] = system: NCI-H226 lung
[29] = system: NCI-H23 lung
[30] = system: NCI-H460 lung
[31] = system: NCI-H522 lung
[32] = system: NCI/ADR-RES ovarian
[33] = system: OVCAR-3 ovarian
[34] = system: OVCAR-4 ovarian
[35] = system: OVCAR-5 ovarian
[36] = system: OVCAR-8 ovarian
[37] = system: PC-3 prostate
[38] = system: RPMI-8226 leukemia
[39] = system: RXF 393 renal
[40] = system: SF-268 CNS
[41] = system: SF-295 CNS
[42] = system: SF-539 CNS
[43] = system: SK-MEL-2 melanoma
[44] = system: SK-MEL-28 melanoma
[45] = system: SK-MEL-5 melanoma
[46] = system: SN12C renal
[47] = system: SNB-19 CNS
[48] = system: SR leukemia
[49] = system: SW-620 colon
[50] = system: T-47D breast
[51] = system: TK-10 renal
[52] = system: U251 CNS
[53] = system: UACC-257 melanoma
[54] = system: UACC-62 melanoma
[55] = system: UO-31 renal
[56] = system: HL-60(TB) leukemia
[57] = system: IGROV1 ovarian
[58] = system: SK-OV-3 ovarian
[59] = system: SNB-75 CNS

Compound `CCCCOc1ccc(S(=O)(=O)/N=C(\NO)Nc2ccc(Cl)cc2)cc1` has a TGI [1] of 29.2 µM, a TGI [2] of 26.7 µM and a TGI [3] of 30.5 µM. It also gave a TGI [4] of 28.2 µM, a TGI [5] of 26.7 µM and a TGI [6] of 23.2 µM. The TGI [7] was 62.1 µM, the TGI [8] was 35.7 µM and the TGI [9] was 30.1 µM. The TGI [10] was 29.5 µM, the TGI [11] was 28.9 µM and the TGI [12] was 30.6 µM. The TGI [13] was 30.4 µM, the TGI [14] was 32.4 µM and the TGI [15] was 19.3 µM. For the same compound, the TGI [16] was 51.3 µM, the TGI [17] was 32.6 µM and the TGI [18] was 41.2 µM. It also gave a TGI [19] of 31.7 µM, a TGI [20] of 31 µM and a TGI [21] of 28.8 µM. For the same compound, the TGI [22] was 32.7 µM, the TGI [23] was 28.8 µM and the TGI [24] was 33.9 µM. The TGI [25] was 30.6 µM, the TGI [26] was 31.6 µM and the TGI [27] was 31.8 µM. The TGI [28] was 43.4 µM, the TGI [29] was 29.4 µM and the TGI [30] was 32.7 µM. It also gave a TGI [31] of 30.1 µM, a TGI [32] of 33.1 µM and a TGI [33] of 28.4 µM. The TGI [34] was 23.6 µM, the TGI [35] was 33.6 µM and the TGI [36] was 36.2 µM. It also gave a TGI [37] of 29.7 µM, a TGI [38] of 50.9 µM and a TGI [39] of 30.2 µM. For the same compound, the TGI [40] was 33.3 µM, the TGI [41] was 30.8 µM and the TGI [42] was 37 µM. The TGI [43] was 31.6 µM, the TGI [44] was 36.1 µM and the TGI [45] was 28.1 µM. For the same compound, the TGI [46] was 31 µM, the TGI [47] was 30.5 µM and the TGI [48] was 67.3 µM. The TGI [49] was 40.3 µM, the TGI [50] was 26.2 µM and the TGI [51] was 28.7 µM. The TGI [52] was 30.8 µM, the TGI [53] was 30.4 µM and the TGI [54] was 28.8 µM. For the same compound, the TGI [55] was 24.6 µM.

Compound `C1CC[N-]CC1.CC(=N\O)/C(C)=N/O.CC(=N\O)/C(C)=N/O.C[CH-]C(C)O.[Co+2]` has a GI50 [1] of 33.9 µM, a TGI [1] of over 100 µM and a GI50 [2] of 23.9 µM. The TGI [2] was 73.9 µM, the GI50 [3] was 47.3 µM and the TGI [3] was over 100 µM. The GI50 [4] was 23.8 µM, the TGI [4] was 81.2 µM and the GI50 [5] was 28.5 µM. The TGI [5] was 79.7 µM, the GI50 [6] was 24 µM and the TGI [6] was 57.8 µM. For the same compound, the GI50 [8] was 14.9 µM, the TGI [8] was 29 µM and the GI50 [9] was 81.1 µM. For the same compound, the TGI [9] was over 100 µM, the GI50 [10] was 35.7 µM and the TGI [10] was over 100 µM. For the same compound, the GI50 [12] was 18.2 µM, the TGI [12] was 36.7 µM and the GI50 [13] was 30 µM. It also gave a TGI [13] of over 100 µM, a GI50 [56] of 14.5 µM and a TGI [56] of 45.7 µM. The GI50 [14] was 21.7 µM, the TGI [14] was 85.9 µM and the GI50 [15] was 19.4 µM. It also gave a TGI [15] of 48.6 µM, a GI50 [16] of 28 µM and a TGI [16] of 83.1 µM. The GI50 [17] was 34.3 µM, the TGI [17] was over 100 µM and the GI50 [57] was 31.7 µM. It also gave a TGI [57] of over 100 µM, a GI50 [18] of 19.3 µM and a TGI [18] of 45.8 µM. For the same compound, the GI50 [19] was 34.3 µM, the TGI [19] was over 100 µM and the GI50 [20] was 17.8 µM. The TGI [20] was 33.7 µM, the GI50 [21] was 20.8 µM and the TGI [21] was 45.1 µM. The GI50 [22] was 15.2 µM, the TGI [22] was 29.7 µM and the GI50 [23] was 24.4 µM. It also gave a TGI [23] of 57.8 µM, a GI50 [24] of 27.2 µM and a TGI [24] of 64 µM. For the same compound, the GI50 [25] was 23.1 µM, the TGI [25] was 51.7 µM and the GI50 [26] was 26.6 µM. It also gave a TGI [26] of 77 µM, a GI50 [27] of 17.4 µM and a TGI [27] of 42.2 µM. The GI50 [28] was 26.2 µM, the TGI [28] was 69 µM and the GI50 [30] was 16.8 µM. For the same compound, the TGI [30] was 30.5 µM, the GI50 [31] was 10.3 µM and the TGI [31] was 22 µM. The GI50 [32] was 54.2 µM, the TGI [32] was over 100 µM and the GI50 [33] was 17.4 µM. For the same compound, the TGI [33] was 51.7 µM, the GI50 [34] was 33.1 µM and the TGI [34] was over 100 µM. For the same compound, the GI50 [35] was 35.1 µM, the TGI [35] was over 100 µM and the GI50 [36] was 21.2 µM. The TGI [36] was 59.6 µM, the GI50 [37] was 26.7 µM and the TGI [37] was 70.8 µM. For the same compound, the GI50 [38] was 18.8 µM, the TGI [38] was 43.4 µM and the GI50 [39] was 15 µM. The TGI [39] was 43.8 µM, the GI50 [40] was 29.4 µM and the TGI [40] was 95 µM. The GI50 [41] was 88.5 µM, the TGI [41] was over 100 µM and the GI50 [42] was 24 µM. The TGI [42] was 94.4 µM, the GI50 [43] was 17.9 µM and the TGI [43] was 34.9 µM. The GI50 [44] was 29.2 µM, the TGI [44] was 61.2 µM and the GI50 [45] was 20.1 µM. For the same compound, the TGI [45] was 43.1 µM, the GI50 [58] was 89 µM and the TGI [58] was over 100 µM. The GI50 [46] was 40.1 µM, the TGI [46] was over 100 µM and the GI50 [47] was 49.6 µM. It also gave a TGI [47] of over 100 µM, a GI50 [59] of 19.5 µM and a TGI [59] of 71.4 µM. For the same compound, the GI50 [48] was 18.2 µM, the TGI [48] was 45 µM and the GI50 [49] was 23.5 µM. For the same compound, the TGI [49] was 66.8 µM, the GI50 [50] was 12.6 µM and the TGI [50] was 41.1 µM. For the same compound, the GI50 [51] was 23.8 µM, the TGI [51] was 60.4 µM and the GI50 [52] was 17.7 µM. For the same compound, the TGI [52] was 31.5 µM, the GI50 [53] was 18.2 µM and the TGI [53] was 40.2 µM. It also gave a GI50 [54] of 15.6 µM, a TGI [54] of 29 µM and a GI50 [55] of 42.9 µM. It also gave a TGI [55] of over 100 µM.
